# Experiments:
# 150Q-EGFP = target: T1, 150Q-EGFP (Homo sapiens, UniProt P42858); experiment: Co-transfection with 150Q-EGFP in Neuro2a cells, confocal imaging with Lysotracker-rhodamine; type: cell-based; details: co-expression for 16 hours
# T1 construct: N-terminal fragment of human huntington exon 1 (tNhtt); expressed in transfected cells; host or cells: Neuro2a cells, transient co-transfection (pcDNA3.1)
# Text: The construction of the N-terminal fragment of human huntington exon 1 (tNhtt) encoding 60 CAG repeats was previously described (G. H. Wang et al., Neuroreport 10, 12(1999)). This fragment was fused to the N-terminal of a variant of yellow fluorescent protein (Venus) (T. Nagai et al., Nat. Biotechnol. 20, 1 (2002)) and inserted into the pcDNA3.1 vector (60Q). Two Hsc70 binding motifs (HSC70bm) (SEQ ID NOs:9 and 10: in bold) were inserted between the Cfr13I and BamHI cutting sites of 60Q: 5′-GTTAAGAAGGATCAA-GCTGGAGCCGCTGCACCG-AAGTTCGAACGTCAA-3′ (SEQ ID NO:11). The tNhtt-16Q-EGFP and tNhtt-150Q-EGFP plasmids for transient transfection were prepared by the introduction of the coding sequence into pcDNA3.1 vector (Invitrogen). […]
# To investigate whether the (R)HQ targets the polyQ to lysosomes, the present inventors co-transfected HQ or other constructs with 16Q-EGFP or 150Q-EGFP to Neuro2a cells for 16 hours. In the cells expressing 16Q-EGFP, none of the co-transfected constructs had any effect on the subcellular distribution of the green fluorescence (FIG. 2C). […] To confirm this observation, the present inventors co-transfected the tested constructs with tNhtt-60Q to Neuro2a cells, 16 hours later purified intact lysosomes and analyzed them for the presence of the polyQ protein. […]
# [1] = tested on: polyQ inclusions in 150Q Neuro2a cells (tNhtt-EGFP-150Q); experiment: ArrayScan quantification of polyQ inclusion formation in inducible 150Q Neuro2a cells; type: cell-based, mouse; details: constructs without mRFP, induced and differentiated for 24 hours
# Procedure: (§1) Mouse neuroblastoma (Neuro2a) cells were maintained in Dulbecco's modified Eagle's medium (Sigma) supplemented with 10% heat-inactivated fetal bovine serum (Sigma), 100 U/ml penicillin and 100 μg/ml streptomycin (Invitrogen) at 37° C. in an atmosphere containing 5% CO2 and 95% air. Establishment of stable Neuro2a cell lines with the ecdysone-inducible mammalian expression system (Invitrogen), that express tNhtt-EGFP-16Q (16Q Neuro2a cells), tNhtt-EGFP-150Q (150Q Neuro2a cells) and tNhtt-EGFP-150Q-nls (150Q-nls Neuro2a cells) has been described earlier (T. Nagai et al., supra, H. Doi et al., supra, E. A. Zemskov et al., J Neurochem. 87, 2 (2003)). Neuro2a cells were differentiated with 5mM dbcAMP (N^6, 2′-O-dibutyryladenosine-3′,5′-cyclic monophosphate sodium salt) (Nacalai Tesque) and induced to express tNhtt-polyQ with 2 μM ponasterone A (ponA; Invitrogen) for indicated times. Neuro2a/FRT/TR cell line was generated as described in the protocol for Flp-in/T-Rex system (Invitrogen). Neuro2a tNhtt-62Q-kikGR cell line was generated by transfecting Neuro2a/FRT/TR cells with the pFRT-HD62-KikGR and pOG44 (Invitrogen) constructs using Lipofectamine 2000 reagent and selected with 200 μg/ml hygromycin. The expression of the pFRT-tNhtt-62Q-KikGR was induced by 18 doxycycline treatment of the cells. For the photo-induced kikGR cleavage, cells were exposed to ˜400 nm wavelength for 5 minutes. Rat pheochromocytoma (PC12) cells were grown in the same conditions as Neuro2a cells, except for the serum composition of 5% of fetal bovine and 10% of horse serum (Sigma). All transient transfections were performed with Lipofectamine 2000 (Invitrogen) according to the manufacturer's instruction.
# (§2) For the quantification of the inclusions, cells were grown in 24-well plates for indicated periods, fixed in 4% paraformaldehyde, washed and incubated with Hoechst 33258 at 1/1000 dilution in PBS. Cells were analyzed by ArrayScan® V^TI High Content Screening (HSC) Reader (Cellomics) using Target Activation BioApplication (TABA). TABA analyzes images acquired by a HSC Reader and provides measurements of the intracellular fluorescence intensity and localization on a cell-by-cell basis.
# (§3) In each well, at least 10000 cells were counted and quantified for the presence of the inclusions. Nuclei stained with Hoechst 33285 provided the autofocus target and their count gave the exact number of the quantified cells. The screening itself consisted of two scans using Hoechst, FITC (for GFP) and TRITC (for RFP) fluorescence. Firstly, number of inclusions in transfected cells was calculated when fluorescent spots at size of at least 5 pixels (magnification 20× for cytoplasmic and 40× for nuclear aggregates) with average GFP intensity more than 1500 in the RFP background were counted. Secondly, nuclei were defined as the objects of interest and the cells with average intensity more than 50 within 3 pixels from the nucleus were selected for the analysis. The percentage of the cells with aggregates was then calculated. When the constructs without mRFP were used for transfection, the procedure was same, except the RFP intensity was not measured. Scanning was performed with triplicate or quadruplicate in each experimental condition. Data was generated from the quantification of more than 250,000 cells in each experimental set-up.
# 150Q-nls Neuro2a cells = experiment: Cell death assay (propidium iodide uptake) in 150Q-nls Neuro2a cells; type: cell-based, mouse; details: after 48 hours of induction
# Procedure: Mouse neuroblastoma (Neuro2a) cells were maintained in Dulbecco's modified Eagle's medium (Sigma) supplemented with 10% heat-inactivated fetal bovine serum (Sigma), 100 U/ml penicillin and 100 μg/ml streptomycin (Invitrogen) at 37° C. in an atmosphere containing 5% CO2 and 95% air. Establishment of stable Neuro2a cell lines with the ecdysone-inducible mammalian expression system (Invitrogen), that express tNhtt-EGFP-16Q (16Q Neuro2a cells), tNhtt-EGFP-150Q (150Q Neuro2a cells) and tNhtt-EGFP-150Q-nls (150Q-nls Neuro2a cells) has been described earlier (T. Nagai et al., supra, H. Doi et al., supra, E. A. Zemskov et al., J Neurochem. 87, 2 (2003)). Neuro2a cells were differentiated with 5mM dbcAMP (N^6, 2′-O-dibutyryladenosine-3′,5′-cyclic monophosphate sodium salt) (Nacalai Tesque) and induced to express tNhtt-polyQ with 2 μM ponasterone A (ponA; Invitrogen) for indicated times. Neuro2a/FRT/TR cell line was generated as described in the protocol for Flp-in/T-Rex system (Invitrogen). […]
# For quantification of cell death, 5 μg/ml each of Hoechst 33342 and propidium iodide (PI) were added to differentiated and induced Neuro2a cells transiently transfected with either of the tested constructs (FIG. 6A). After 10 minutes at 37° C., the number of cells with PI uptake over the total number of cells was calculated by ArrayScan.
# [2] = tested on: polyQ inclusions in 150Q-nls Neuro2a cells (tNhtt-EGFP-150Q-nls); experiment: ArrayScan quantification of polyQ inclusion formation in inducible 150Q-nls Neuro2a cells; type: cell-based, mouse; details: 150Q-nls Neuro2a cells, constructs without mRFP, 48 hours after induction
# Procedure: as §1, with “Rat pheochromocytoma (PC12) cells were grown in the same conditions as Neuro2a cells, except for the serum composition of 5% of fetal bovine and 10% of horse serum (Sigma). All transient transfections were performed with Lipofectamine 2000 (Invitrogen) according to the manufacturer's instruction.” left out
# as §2
# as §3, with “Secondly, nuclei were defined as the objects of interest and the cells with average intensity more than 50 within 3 pixels from the nucleus were selected for the analysis.” left out, “Scanning was performed with triplicate or quadruplicate in each experimental condition.” left out
# T1 sequence (P42858 with tags, fused parts or gaps): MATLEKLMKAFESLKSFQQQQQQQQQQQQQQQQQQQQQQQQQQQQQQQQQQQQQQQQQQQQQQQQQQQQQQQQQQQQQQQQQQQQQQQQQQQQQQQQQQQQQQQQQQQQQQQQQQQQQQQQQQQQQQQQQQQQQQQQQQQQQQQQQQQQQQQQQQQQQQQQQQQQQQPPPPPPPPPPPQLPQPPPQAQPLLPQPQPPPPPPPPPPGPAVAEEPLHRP
substance,measurement,setting,value
HSC70bm-(QBP1)2 (MARVKKDQAEPLHRKFERQPPGSNWKWWPGIFDSNWKWWPGIFD) [HQ],subcellular distribution of 150Q-EGFP fluorescence,150Q-EGFP,"fluorescence intensity decreased, redistributed and partly co-localized with the lysosomal marker"
same,decrease of aggregation compared to control counterparts (S and HS),[1],58.5%
same,decrease of the percentage of PI-positive cells,150Q-nls Neuro2a cells,47.2%
same,reduction of aggregation compared to control counterparts (S and HS),[2],45.2%
